Data as given in paper PMC7855930, “Nontoxic Cobalt(III) Schiff Base Complexes with Broad‐Spectrum Antifungal Activity” (Chemistry (Weinheim an Der Bergstrasse, Germany), 2020).
Several values for one entry are separate records, joined by “and”; a condition that tells them apart may be missing. Equal entries are not always repeated. Where two headings read alike, the source gives them in different places.

Tests used:
[1] = test system: C. neoformans ATCC 208821; experiment: Antifungal MIC assay (broth microdilution in YNB); format: cell-based, Cryptococcus neoformans; conditions: for MIC: Cryptococcus neoformans, ATCC208821
From the text: (§1) Yeast strains: Candida albicans (ATCC 90028, NCCLS 11), Cryptococcus neoformans (ATCC 208821, H99 type strain), Candida tropicalis (ATCC 750, type strain), Candida glabrata (ATCC 90030, NCCLS 84) and Cryptococcus deuterogattii (ATCC 32609, type strain) were obtained from the American Type Culture Collection (ATCC). Cryptococcus deuterogattii (CBS 7750), Candida auris (CBS 10913) and Candida auris (CBS 12373) were obtained from the CBS‐KNAW culture collection. The strains were maintained on glycerol/YPD (yeast extract‐peptone dextrose) broth (20:80 v/v) at −80 °C.
(§2) Antifungal minimum inhibitory concentration (MIC) assay: The cobalt complexes and antifungal control compounds were serially diluted in 50 μL of Yeast Nitrogen Broth (YNB; BD, Cat No. 233520 supplemented with 2 % glucose and 10 mM ammonium sulfate) two‐fold across the wells of non‐binding surface (NBS) 96‐well plates (Corning; Cat. No. 3641). Plates were set up in quadruplicate for each strain tested, and two biological replicates were conducted on separate assay days.
(§3) Yeast strains were cultured from glycerol onto YPD (Becton Dickinson 242720) agar at 30 °C for 72 h. For each strain, a minimum of five single colonies were taken from the agar plate and dissolved in sterile water and adjusted to form a yeast suspension of 1×10^6 to 5×10^6 CFU mL^−1 (as determined by OD530). The suspension was subsequently diluted into YNB media, and added to each well of the compound containing plates, giving a final cell density of 2.5×10^3 CFU mL^−1 and a total volume of 100 μL. Plates were covered and incubated at 35 °C for 36 h without shaking.
(§4) Growth inhibition of all strains was determined visually where the MIC was recorded as the lowest compound concentration with no visible growth. Fluconazole (Sigma F8929), ketoconazole (Sigma K1003) and micafungin (Sigma SML2288) were used as internal positive inhibitor controls for every strain tested.

[2] = test system: human red blood cells; experiment: Haemolysis assay; format: cell-based; conditions: 1 h at 37 °C
Method: Haemolysis assay: Human whole blood (Australian Red Cross Blood Service) was washed three times with three volumes of 0.9 % NaCl and resuspended in a concentration of 0.5×10^8 cells mL^−1, determined by manual cell count in a Neubauer haemocytometer. Washed cells were added to compound containing plates (384‐well round bottom polypropylene plates, Corning 3657) for a final volume of 50 μL, shaken for 10 min and incubated for 1 h at 37 °C, without shaking. After incubation, the plates were centrifuged at 1000 g for 10 min to pellet cells and debris, 25 μL of the supernatant was then transferred to reading plates (384‐well flat bottom polystyrene plates, Corning CLS3680), with haemolysis determined by measuring the supernatant absorbance at […] (OD405), using cells without inhibitors as negative control and cells with 1 % Triton X‐100 (Sigma T8787) as positive control. HC10 and HC50 (concentration at which 10 and 50 % haemolysis is induced, respectively) were calculated by curve fitting the inhibition values vs. log(concentration) of four replicates using a sigmoidal dose–response function with variable fitting values for top, bottom and slope using Prism 8. Melittin (Sigma M2272) was used as positive haemolytic control on each plate. Human ethics approval from the University of Queensland Institutional Human Research Ethics Committee was obtained for use of human blood for haemolysis studies (approval number 201400003).

[3] = test system: Acinetobacter baumannii ATCC 19606; experiment: CO-ADD bacterial broth microdilution MIC assay; format: cell-based; conditions: CAMHB, 37 °C, 18 h, ≥ 80% inhibition; for MIC: Acinetobacter baumannii, ATCC19606, read-out: MIC Ab (Acinetobacter baumannii ATCC 19606)
Method: (§5) CO-ADD High Throughput Screening
(§6) Bacterial broth microdilution minimum inhibitory concentration (MIC) assay Bacterial strains were cultured in Cation-adjusted Mueller Hinton broth (CAMHB; Bacto Laboratories 212322) at 37 °C overnight. A sample of each culture was then diluted 40-fold in fresh CAMHB and incubated at 37 °C for 1.5-3 h. The resultant mid-log phase cultures were diluted with CAMHB (CFU/mL measured by OD600), then added to each well of the compound-containing plates (384-well non-binding surface (NBS) plates; Corning CLS3640), giving a cell density of 5 × 10^5 CFU/mL and a total volume of 50 µL. Plates were covered and incubated at 37 °C for 18 h without shaking. Inhibition of bacterial growth was determined measuring absorbance at 600 nm (OD600), using media only as negative control and bacteria without inhibitors as positive control. MIC values were determined as the lowest concentration at which the growth was inhibited at ≥ 80%. Colistin sulfate (Sigma C4461) and vancomycin HCl (Sigma 861987) were used as positive inhibitor controls on each plate for Gram-negative and Gram-positive bacteria, respectively.
(§7) Figure S1. 1H NMR (400 MHz) of [Co(ATS)(DMAP)2]NO3 (3) in DMSO-d6.
(§8) (1 picture or pasted object on this page, not shown here)

[4] = test system: Pseudomonas aeruginosa ATCC 27853; experiment: CO-ADD bacterial broth microdilution MIC assay; format: cell-based; conditions: CAMHB, 37 °C, 18 h, ≥ 80% inhibition; for MIC: Pseudomonas aeruginosa, ATCC27853, read-out: MIC Pa (Pseudomonas aeruginosa ATCC 27853)
Method: as §5, §6, §7, §8

[5] = test system: C. tropicalis ATCC 750; experiment: Antifungal MIC assay (broth microdilution in YNB); format: cell-based, Candida tropicalis; conditions: for MIC: Candida tropicalis, ATCC750
From the text: as §1, §2, §3, §4

[6] = test system: C. glabrata ATCC 90030; experiment: Antifungal MIC assay (broth microdilution in YNB); format: cell-based, Candida glabrata
From the text: as §1, §2, §3, §4

[7] = test system: C. albicans ATCC 90028; experiment: Antifungal MIC assay (broth microdilution in YNB); format: cell-based, Candida albicans
From the text: as §1, §2, §3, §4

[8] = test system: C. auris CBS 12373; experiment: Antifungal MIC assay (broth microdilution in YNB); format: cell-based, Candida auris
From the text: as §1, §2, §3, §4

[9] = test system: C. auris CBS 10913; experiment: Antifungal MIC assay (broth microdilution in YNB); format: cell-based, Candida auris; conditions: for MIC: Candidozyma auris, CBS10913
From the text: as §1, §2, §3, §4

[10] = test system: Klebsiella pneumoniae ATCC 700603 (K6; ESBL SHV-18); format: cell-based; conditions: 18 h
Method: as §5, §6, §7, §8

[11] = range of MICs, n=8, 35 °C, 36 h, visual
[12] = Table S1, read-out: MIC Cryptococcus neoformans ATCC 208821
[13] = range of MICs, n=8, 35 °C, 36 h, visual, read-out: MIC C. neoformans ATCC 208821
[14] = Table S1, read-out: MIC Candida tropicalis ATCC 750
[15] = range of MICs, n=8, 35 °C, 36 h, visual, read-out: MIC C. tropicalis ATCC 750
[16] = Nakaseomyces glabratus, ATCC90030, Table S1, read-out: MIC Candida glabrata ATCC 90030
[17] = Nakaseomyces glabratus, ATCC90030, range of MICs, n=8, 35 °C, 36 h, visual, read-out: MIC C. glabrata ATCC 90030
[18] = Candida albicans, ATCC90028, Table S1, read-out: MIC Candida albicans ATCC 90028
[19] = Candida albicans, ATCC90028, range of MICs, n=8, 35 °C, 36 h, visual, read-out: MIC C. albicans ATCC 90028
[20] = Candidozyma auris, CBS12373, Table S1, read-out: MIC Candida auris CBS 12373
[21] = Candidozyma auris, CBS12373, range of MICs, n=8, 35 °C, 36 h, visual, read-out: MIC C. auris CBS 12373
[22] = Table S1, read-out: MIC Candida auris CBS 10913
[23] = range of MICs, n=8, 35 °C, 36 h, visual, read-out: MIC C. auris CBS 10913

| SMILES | Haem HC10 (concentration at which 10 % haemolysis is reached) [2] | MIC Kp (Klebsiella pneumoniae ATCC 700603) [10] [µg/mL] | MIC [1, 12] [µg/mL] | MIC [1, 13] [µM] | MIC [3] [µg/mL] | MIC [4] [µg/mL] | MIC [5, 14] [µg/mL] | MIC [5, 15] [µM] | MIC [6, 16] [µg/mL] | MIC [6, 17] [µM] | MIC [7, 18] [µg/mL] | MIC [7, 19] [µM] | MIC [8, 20] [µg/mL] | MIC [8, 21] [µM] | MIC [9, 22] [µg/mL] | MIC [9, 23] [µM] | other results |
| --- | --- | --- | --- | --- | --- | --- | --- | --- | --- | --- | --- | --- | --- | --- | --- | --- | --- |
| CC1=[N+]2N=C(N)[S][Co-3]23([n+]2ccc(N(C)C)cc2)([n+]2ccc(N(C)C)cc2)[S]C(N)=N[N+]3=C1C.O=[N+]([O-])[O-] [Compound 3, [Co(ATS)(DMAP)2]NO3] | 73.1 µM and 73.1 ± 20.4 µM | > 32 |  |  |  |  |  |  |  |  |  |  |  |  |  |  | MIC Cryptococcus neoformans ATCC 208821 ([1]; Table S1): 0.46 to 0.93 µg/mL; MIC Ab (Acinetobacter baumannii ATCC 19606) [3]: > 32 µg/mL; MIC Pa (Pseudomonas aeruginosa ATCC 27853) [4]: > 32 µg/mL; MIC Candida tropicalis ATCC 750 ([5]; Table S1): 0.23 to 0.46 µg/mL; MIC C. tropicalis ATCC 750 [5, 11]: 0.39 to 0.78 µM; MIC Candida glabrata ATCC 90030 ([6]; Table S1): 29.7 µg/mL; MIC ([6]; range of MICs, n=8, 35 °C, 36 h, visual, read-out: MIC C. glabrata ATCC 90030): 50 µM; MIC Candida albicans ATCC 90028 ([7]; Table S1): 0.93 µg/mL; MIC ([7]; range of MICs, n=8, 35 °C, 36 h, visual, read-out: MIC C. albicans ATCC 90028): 1.56 µM; MIC Candida auris CBS 12373 ([8]; Table S1): 0.46 µg/mL; MIC ([8]; range of MICs, n=8, 35 °C, 36 h, visual, read-out: MIC C. auris CBS 12373): 0.78 µM; MIC Candida auris CBS 10913 ([9]; Table S1): 0.23 to 0.46 µg/mL; MIC C. auris CBS 10913 [9, 11]: 0.39 to 0.78 µM |
| Oc1c(F)cccc1/C=N/CC/N=C/c1cccc(F)c1O [Compound L3] | >100 µM | > 32 | > 30.4 | 100 | > 32 | > 32 | > 30.4 | > 100 | > 30.4 | > 100 | > 30.4 | > 100 | > 30.4 | 100 | > 30.4 | > 100 |  |
| CC(/C=C(\O)C(F)(F)F)=N\CC/N=C(C)/C=C(\O)C(F)(F)F [Compound L2] | >100 µM | > 32 | > 33.2 | > 100 | > 32 | > 32 | > 33.2 | > 100 | > 33.2 | > 100 | > 33.2 | > 100 | > 33.2 | > 100 | > 33.2 | > 100 |  |
